# From paper PMC7281072 (Cancers, 2020)
# Where two headings read alike, the source gives them in different places.
# Legend:
# OVCAR-3 cancer cell line [1] = system: OVCAR-3 cancer cell line
# AKT1,2 phosphorylation [2] = assay: AKT phosphorylation ELISA, UWB1.289 cells; format: cell-based, human; conditions: for Vmax ± SE, pAKT 1/2 inhibition: Michaelis Menten model; for IC50: Homo sapiens, read-out: IC50, pAKT 1/2 inhibition
# pAKT = assay: Western immunoblotting densitometry, pAKT, OVCAR-3 cells; format: cell-based, human; conditions: 25 μM; for ratio [pAKT]/[GAPDH] band intensity: OVCAR-3 cells; for ratio [pAKT]/[GAPDH] band intensity, single blot (panel A): panel A upper set, cell line not given, control ratio 1.21
# ERK1,2 phosphorylation = assay: ERK1/2 phosphorylation ELISA, UWB1.289+BRCA1 cells; format: cell-based, human; conditions: for Vmax ± SE, pERK 1/2 inhibition: Michaelis Menten model; for IC50: Homo sapiens, read-out: IC50, pERK 1/2 inhibition
# AKT1,2 phosphorylation [3] = assay: AKT phosphorylation ELISA, UWB1.289+BRCA1 cells; format: cell-based, human; parameters: Vmax ± SE, pAKT 1/2 inhibition: unit not given beside the values; conditions: for Vmax ± SE, pAKT 1/2 inhibition: Michaelis Menten model; for IC50: Homo sapiens, read-out: IC50, pAKT 1/2 inhibition
# [4] = system: SKOV-3 human ovarian adenocarcinoma xenograft; parameters: species or system CB17 SCID mice; conditions: mouse, in vivo
# [5] = system: OVCAR-5 human ovarian adenocarcinoma xenograft; parameters: species or system CB17 SCID mice; conditions: mouse, in vivo
# AKT1,2 phosphorylation [6] = assay: AKT phosphorylation ELISA, OVCAR-5 cells; format: cell-based, human; conditions: for Vmax ± SE, pAKT 1/2 inhibition: Michaelis Menten model; for IC50: Homo sapiens, read-out: IC50, pAKT 1/2 inhibition
# [7] = system: UWB1.289+BRCA1 cancer cell line; assay: cells; conditions: Homo sapiens, 48 h
# OVCAR-3 cancer cell line [8] = assay: cells; conditions: Homo sapiens, OVCAR-3, 48 h, read-out: GI50 (50% Growth Inhibition)
smiles,measurement,setting,value
"C[C@]12CC[C@H]3[C@@H](CCC4=CC(=O)NCC[C@@]43C)[C@@H]1CC[C@@H]2OC(=O)CCOc1ccc(N(CCCl)CCCl)cc1 [ENGA-L06E, 5a,7a-dimethyl-2-oxo-2,3,4,5,5a,5b,6,7,7a,8,9,10,10a,10b,11,12-hexa decahydrocyclopenta [5, 6] naphtho [1,2-d] azepin-8-yl 3-(4-(bis(2-chloroethyl)amino)phenoxy) propanoate]",TGI (Total Growth Inhibition),OVCAR-3 cancer cell line [1],32 ± 1.8 μΜ
same,TGI (Total Growth Inhibition),SK-OV-3 cancer cell line,52 ± 3.3 μΜ
same,"Vmax ± SE, pAKT 1/2 inhibition","AKT1,2 phosphorylation [2]; 15 min",62.12 ± 1.41
same,"Vmax ± SE, pAKT 1/2 inhibition","AKT1,2 phosphorylation [2]; 30 min",64.94 ± 4.22
same,"Vmax ± SE, pAKT 1/2 inhibition","AKT1,2 phosphorylation [2]; 60 min",71.12 ± 3.34
same,IC50,"AKT1,2 phosphorylation [2]; UWB1289, 0.25 h, 15 min",16.9 µM
same,IC50,"AKT1,2 phosphorylation [2]; UWB1289, 0.5 h, 30 min",14.4 µM
same,IC50,"AKT1,2 phosphorylation [2]; UWB1289, 1 h, 60 min",11.8 µM
same,ratio [pAKT]/[GAPDH] band intensity,"pAKT; 30min, control ratio 1.23",0.92
same,ratio [pAKT]/[GAPDH] band intensity,"pAKT; 1h, control ratio 1.14",0.62
same,ratio [pAKT]/[GAPDH] band intensity,"pAKT; 3h, control ratio 1.27",0.61
same,ratio [pAKT]/[GAPDH] band intensity,"pAKT; 6h, control ratio 1.26",0.54
same,ratio [pAKT]/[GAPDH] band intensity,"pAKT; 12h, control ratio 1.18",0.50
same,ratio [pAKT]/[GAPDH] band intensity,"pAKT; 24h, control ratio 1.29",0.59
same,"ratio [pAKT]/[GAPDH] band intensity, single blot (panel A)",pAKT; 1h,0.52
same,"ratio [pAKT]/[GAPDH] band intensity, single blot (panel A)",pAKT; 3h,0.22
same,"Vmax ± SE, pERK 1/2 inhibition","ERK1,2 phosphorylation; 15 min",59.43 ± 1.10
same,"Vmax ± SE, pERK 1/2 inhibition","ERK1,2 phosphorylation; 30 min",72.79 ± 1.14
same,"Vmax ± SE, pERK 1/2 inhibition","ERK1,2 phosphorylation; 60 min",74.35 ± 0.49
same,IC50,"ERK1,2 phosphorylation; 0.25 h, 15 min",28.7 µM
same,IC50,"ERK1,2 phosphorylation; 0.5 h, 30 min",12.4 µM
same,IC50,"ERK1,2 phosphorylation; 1 h, 60 min",9.29 µM
same,"Vmax ± SE, pAKT 1/2 inhibition","AKT1,2 phosphorylation [3]; 15 min",59.78 ± 4.67
same,"Vmax ± SE, pAKT 1/2 inhibition","AKT1,2 phosphorylation [3]; 30 min",57.10 ± 3.38
same,"Vmax ± SE, pAKT 1/2 inhibition","AKT1,2 phosphorylation [3]; 60 min",63.12 ± 4.19
same,IC50,"AKT1,2 phosphorylation [3]; 0.25 h, 15 min",44.4 µM
same,IC50,"AKT1,2 phosphorylation [3]; 0.5 h, 30 min",40.3 µM
same,IC50,"AKT1,2 phosphorylation [3]; 1 h, 60 min",25.8 µM
same,Median Overall Survival (OS),[4],112 days
same,Progression Free Survival (PFS),[4],11 days
same,Response Rate (RR),[4],100%
same,Cures (mice alive for 120 days after tumor inoculation),[4]; ip,2/5
same,MST (mean survival time),[4]; ip,79.6 ± 4.0 p < 0.01 Days
same,T/C% (mean survival time of treated versus saline controls),[4]; ip,195.6%
same,TI% (Tumor Inhibition),[4]; ip,67.6%
same,size of the primary tumor,[4]; ip,478 ± 18.3 mm^3
same,Median Overall Survival (OS),[5],98 days
same,Progression Free Survival (PFS),[5],27 days
same,Response Rate (RR),[5],100%
same,Cures (mice alive for 120 days after tumor inoculation),[5]; ip,0/5
same,MST (mean survival time),[5]; ip,93.2 ± 2.4 p < 0.01 Days
same,T/C% (mean survival time of treated versus saline controls),[5]; ip,184.8%
same,TI% (Tumor Inhibition),[5]; ip,117.0%
same,size of the primary tumor,[5]; ip,220 ± 19.1 mm^3
same,"Vmax ± SE, pAKT 1/2 inhibition","AKT1,2 phosphorylation [6]; 15 min",57.76 ± 3.49
same,"Vmax ± SE, pAKT 1/2 inhibition","AKT1,2 phosphorylation [6]; 30 min",59.24 ± 0.49
same,"Vmax ± SE, pAKT 1/2 inhibition","AKT1,2 phosphorylation [6]; 60 min",62.49 ± 0.25
same,IC50,"AKT1,2 phosphorylation [6]; 0.25 h, 15 min",> 50 µM
same,IC50,"AKT1,2 phosphorylation [6]; 0.5 h, 30 min",49.8 µM
same,IC50,"AKT1,2 phosphorylation [6]; 1 h, 60 min",29.5 µM
same,GI50,[7]; read-out: GI50 (50% Growth Inhibition),12 ± 0.7 µM
same,IC50,[7]; read-out: IC50 (cytotoxic effect),40 ± 3.5 µM
same,GI50,OVCAR-3 cancer cell line [8],22 ± 0.9 µM
